# Reference: patent publication US20260373266A1, “PROTEIN DEGRADERS AND USES THEREOF” (KYMERA THERAPEUTICS, INC., priority 2022, published 2026)
# pKd: −log10 of the molar value.
# Target: T1, DCAF1 WD40 domain (residues 1077-1390) (Homo sapiens, UniProt Q9Y4B6)
# T1 construct: DCAF1 WD40 domain (residues 1077-1390)
# Experiment: DCAF1 binding assay by SPR (Biacore 8K+), DCAF1-3 KD
# Conditions: 25 °C, read-out: DCAF1-3 SPR (KD)
# T1 sequence (Q9Y4B6 1077-1390): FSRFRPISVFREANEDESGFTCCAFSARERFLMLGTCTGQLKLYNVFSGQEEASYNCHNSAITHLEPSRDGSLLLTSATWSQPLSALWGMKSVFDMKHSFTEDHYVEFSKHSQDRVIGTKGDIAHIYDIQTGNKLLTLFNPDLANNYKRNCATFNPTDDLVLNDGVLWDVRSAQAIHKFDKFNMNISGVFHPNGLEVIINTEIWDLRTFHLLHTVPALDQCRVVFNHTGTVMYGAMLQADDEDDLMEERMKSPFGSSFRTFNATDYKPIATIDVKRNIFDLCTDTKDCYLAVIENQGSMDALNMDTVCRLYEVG
row,SMILES,pKd
1,NC(=O)CC1(NC(=O)c2cn[nH]c2-c2ccccc2F)CCCc2c(Cl)cccc21 (stereo not drawn) [I-562],< 3.70
2,Oc1cc(N[C@@H]2CCCN(c3cccc(F)c3)C2)cc(N2CCOCC2)c1 [I-564],4.00 to 5.00
3,NC(=O)C[C@H](NC(=O)c1c[nH]c(Cc2ccccc2)c1-c1c(F)cccc1F)c1cccc(Cl)c1 [I-566],> 5.00
4,C[C@@H]1CCCCN1c1ccnc(N[C@@H]2CCCN(c3cccc(F)c3)C2)c1 [I-568],> 5.00
5,C[C@H]1CCCCN1c1ccnc(N[C@@H]2CCCN(c3cccc(F)c3)C2)c1 [I-569],> 5.00
6,C[C@H]1CCCN(c2ccnc(N[C@@H]3CCCN(c4cccc(F)c4)C3)c2)C1 [I-570],4.00 to 5.00
7,CC1CCN(c2ccnc(N[C@@H]3CCCN(c4cccc(F)c4)C3)c2)CC1 [I-571],4.00 to 5.00
8,CCC1CCCN(c2ccnc(N[C@@H]3CCCN(c4cccc(F)c4)C3)c2)C1 (stereo partly drawn) [I-572],4.00 to 5.00
9,Fc1cccc(N2CCC[C@@H](Nc3cc(N4CCCC5(CC5)C4)ccn3)C2)c1 [I-573],4.00 to 5.00
10,Fc1cccc(N2CCC[C@@H](Nc3cc(N4CC5CC5C4)ccn3)C2)c1 (stereo partly drawn) [I-574],4.00 to 5.00
11,Fc1cccc(N2CCC[C@@H](Nc3cc(N4CC5(CCC5)C4)ccn3)C2)c1 [I-577],4.00 to 5.00
12,NC(=O)C[C@H](NC(=O)c1cn[nH]c1CC1CCCCC1)c1cccc(Cl)c1 [I-582],> 5.00
13,Cc1ccc(Cl)cc1[C@H](CC(N)=O)NC(=O)c1cn[nH]c1-c1ccccc1F [I-583],> 5.00
14,Cc1ccc(Cl)cc1[C@@H](CC(N)=O)NC(=O)c1cn[nH]c1-c1ccccc1F [I-584],4.00 to 5.00
15,NC(=O)C[C@H](NC(=O)c1ccc(N)nc1-c1ccccc1F)c1cccc(Cl)c1 [I-588],4.00 to 5.00
16,NC(=O)C[C@H](NC(=O)c1cnc(N)cc1-c1ccccc1F)c1cccc(Cl)c1 [I-589],< 3.70
17,NC(=O)C[C@H](NC(=O)c1c[nH]c(-c2ccccc2)c1-c1ccccc1F)c1cccc(Cl)c1 [I-594],> 5.00
18,Cc1cccc(C)c1-c1[nH]ncc1C(=O)N[C@@H](CC(N)=O)c1cccc(Cl)c1 [I-595],> 5.00
19,Fc1cccc(N2CCC[C@@H](Nc3cc(N4CCCCCC4)ccn3)C2)c1 [I-597],> 5.00
20,N#Cc1[nH]cc(C(=O)N[C@@H](CC(N)=O)c2cccc(Cl)c2)c1-c1ccccc1F [I-598],> 5.00
21,NC(=O)C[C@H](NC(=O)c1c[nH]c(C(N)=O)c1-c1ccccc1F)c1cccc(Cl)c1 [I-599],> 5.00

row,SMILES,pKd
1,Cc1c(F)ccc(F)c1-c1[nH]ncc1C(=O)N[C@@H](CC(N)=O)c1cccc(Cl)c1 [I-601],> 5.00
2,NC(=O)CC1(NC(=O)c2cn[nH]c2-c2ccccc2F)CCc2ccc(Cl)cc21 (stereo not drawn) [I-607],4.00 to 5.00
3,Fc1cccc(N2CCC[C@@H](Nc3cc(C4CCOCC4)[nH]n3)C2)c1 [I-608],< 3.70
4,Fc1cccc(N2CCC[C@@H](Nc3cc(C4=CCOCC4)[nH]n3)C2)c1 [I-609],< 3.70
5,CC1CC=C(c2[nH]ncc2C(=O)N[C@@H](CC(N)=O)c2cccc(Cl)c2)CC1 (stereo partly drawn) [I-611],> 5.00
6,O=C(c1cc(N2CCCCC2)ccn1)[C@@H]1CCCN(c2cccc(F)c2)C1 [I-612],< 3.70
7,O=C(c1cc(N2CCCCC2)ccn1)[C@H]1CCCN(c2cccc(F)c2)C1 [I-613],4.00 to 5.00
8,CN(c1ccccc1)c1ccnc(N[C@@H]2CCCN(c3cccc(F)c3)C2)c1 [I-614],4.00 to 5.00
9,COCCOCCOCCC(c1cc(N2CC3CCC(C3)C2)ccn1)[C@@H]1CCCN(c2cccc(F)c2)C1 (stereo partly drawn) [I-615],> 5.00
10,Fc1cccc(N2CCC[C@@H](Nc3cc(N4C5CCCC4CC5)ccn3)C2)c1 [I-617],> 5.00
11,Fc1cccc(N2CCC[C@@H](Nc3cc(N4CC5CCC(CC5)C4)ccn3)C2)c1 [I-618],> 5.00
12,Cc1cccc(F)c1-c1c(C(=O)N[C@@H](CC(N)=O)c2cccc(Cl)c2)c[nH]c1C(=O)Cc1ccccc1 [I-622],> 5.00
13,Fc1cccc(N2CCC[C@@H]3[C@H]2CCN3c2cc(N3CC4CC(C4)C3)ccn2)c1 [I-623],> 5.00
14,Fc1cccc(N2CCC[C@H]3[C@@H]2CCN3c2cc(N3CC4CC(C4)C3)ccn2)c1 [I-624],< 3.70
15,Cc1ccc(C(=O)c2[nH]cc(C(=O)N[C@@H](CC(N)=O)c3cccc(Cl)c3)c2-c2c(C)cccc2F)cc1 [I-625],> 5.00
16,O=C(O)C1C(Nc2cc(N3CCOCC3)ccn2)CCCN1c1cccc(F)c1 (stereo not drawn) [I-628],4.00 to 5.00
17,NC(=O)C[C@H](NC(=O)c1cn[nH]c1-c1c(F)cccc1C(F)(F)F)c1cccc(Cl)c1 [I-630],> 5.00
18,Fc1cccc(N2CCC[C@H]3[C@@H]2CCN3c2cc(N3CCCCCC3)ccn2)c1 [I-636],> 5.00
19,CCc1cccc([C@@H](CC(N)=O)NC(=O)c2cn[nH]c2-c2ccccc2F)c1 [I-639],3.70 to 4.00
20,C=CC(=O)N1C[C@H](c2ccc(Br)cc2)[C@@H]1C(=O)N1CCN(c2ccnc(N[C@@H]3CCCN(c4cccc(F)c4)C3)c2)CC1 [I-641],4.00 to 5.00

# The next lines start with the values.
row,pKd,SMILES
1,< 3.70,O=C1C[C@@H]([C@@H](NC(=O)c2cn[nH]c2-c2ccccc2F)c2cccc(Cl)c2)CN1 [I-560]
2,< 3.70,O=C1CC(C(NC(=O)c2cn[nH]c2-c2ccccc2F)c2cccc(Cl)c2)CN1 (stereo not drawn) [I-561]
3,4.00 to 5.00,CC(C)c1cccc(-c2[nH]ncc2C(=O)N[C@@H](CC(N)=O)c2cccc(Cl)c2)c1F [I-563]
4,3.70 to 4.00,NC(=O)C[C@H](NC(=O)c1nc(N)sc1-c1ccccc1F)c1cccc(Cl)c1 [I-565]
5,4.00 to 5.00,Oc1ccc(N2CCC[C@@H](Nc3cncc(N4CCOCC4)c3)C2)cc1 [I-567]
6,> 5.00,Fc1cccc(N2CCC[C@@H](Nc3cc(N4CC5CCCC5C4)ccn3)C2)c1 (stereo partly drawn) [I-575]
7,> 5.00,Fc1cccc(N2CCC[C@@H](Nc3cc(N4CC5CC(C5)C4)ccn3)C2)c1 [I-576]
8,4.00 to 5.00,CN(c1ccnc(N[C@@H]2CCCN(c3cccc(F)c3)C2)c1)C1CCCCC1 [I-578]
9,3.70 to 4.00,Fc1cccc(N2CCC[C@H]3[C@@H]2CCN3c2cc(N3CCCCC3)ccn2)c1 [I-580]
10,4.00 to 5.00,NC(=O)C[C@H](NC(=O)c1cn[nH]c1-c1ccccc1F)c1ccccc1Br [I-581]
11,> 5.00,Cc1[nH]cc(C(=O)N[C@@H](CC(N)=O)c2cccc(Cl)c2)c1-c1c(F)cccc1F [I-585]
12,> 5.00,NC(=O)C[C@H](NC(=O)C1=C(c2c(F)cccc2F)CNC1)c1cccc(Cl)c1 [I-586]
13,4.00 to 5.00,NC(=O)C[C@H](NC(=O)C1=C(c2c(F)cccc2F)CN(Cc2ccccc2)C1)c1cccc(Cl)c1 [I-587]
14,> 5.00,NC(=O)C[C@H](NC(=O)c1cn[nH]c1-c1c(F)cccc1C1CC1)c1cccc(Cl)c1 [I-590]
15,> 5.00,C#Cc1cccc(F)c1-c1[nH]ncc1C(=O)N[C@@H](CC(N)=O)c1cccc(Cl)c1 [I-591]
16,> 5.00,Cc1cccc(F)c1-c1c[nH]cc1C(=O)N[C@@H](CC(N)=O)c1cccc(Cl)c1 [I-592]
17,> 5.00,Oc1ccc(N2CCC[C@@H](Nc3cc(N4CCCCC4)ccn3)C2)cc1 [I-593]
18,4.00 to 5.00,COCCN(c1cc(N2CCCCC2)ccn1)[C@@H]1CCCN(c2cccc(F)c2)C1 [I-596]
19,> 5.00,NC(=O)C[C@H](NC(=O)c1c[nH]c(-c2ccc[nH]2)c1-c1ccccc1F)c1cccc(Cl)c1 [I-600]
20,> 5.00,NC(=O)C[C@H](NC(=O)c1cn[nH]c1-c1ccccc1F)c1ccccc1F [I-602]
21,> 5.00,NC(=O)C[C@H](NC(=O)c1c[nH]c(C(=O)c2ccccc2)c1-c1ccccc1F)c1cccc(Cl)c1 [I-603]

row,pKd,SMILES
1,> 5.00,Fc1cccc(N2CCC[C@@H]3[C@H]2CCN3c2cc(N3CC4CCC(C4)C3)ccn2)c1 [I-604]
2,4.00 to 5.00,Fc1cccc(N2CCC[C@H]3[C@@H]2CCN3c2cc(N3CC4CCC(C4)C3)ccn2)c1 [I-605]
3,> 5.00,Cc1cccc(F)c1-c1c(C(=O)N[C@@H](CC(N)=O)c2cccc(Cl)c2)c[nH]c1C(=O)C1CCCCC1 [I-606]
4,> 5.00,CC1=C(c2[nH]ncc2C(=O)N[C@@H](CC(N)=O)c2cccc(Cl)c2)CCCC1 [I-610]
5,> 5.00,Fc1cccc(N2CCC[C@@H](Nc3cc(N4C5CCCC4C5)ccn3)C2)c1 [I-616]
6,> 5.00,NC(=O)C[C@H](NC(=O)c1cn[nH]c1C(=O)c1ccccc1)c1cccc(Cl)c1 [I-619]
7,3.70 to 4.00,C=CC(=O)NCCCN1CCN(c2ccnc(N[C@@H]3CCCN(c4cccc(F)c4)C3)c2)CC1 [I-621]
8,> 5.00,Cc1ccccc1C(=O)c1[nH]cc(C(=O)N[C@@H](CC(N)=O)c2cccc(Cl)c2)c1-c1c(C)cccc1F [I-626]
9,> 5.00,Cc1cccc(C(=O)c2[nH]cc(C(=O)N[C@@H](CC(N)=O)c3cccc(Cl)c3)c2-c2c(C)cccc2F)c1 [I-627]
10,> 5.00,NC(=O)C[C@H](NC(=O)c1c[nH]c(Nc2ccccc2)c1-c1c(F)cccc1F)c1cccc(Cl)c1 [I-629]
11,< 3.70,Fc1cccc(N2CCC[C@@H](Cc3cc(N4CCOCC4)[nH]n3)C2)c1 [I-631]
12,< 3.70,Fc1cccc(N2CCC[C@H](Cc3cc(N4CCOCC4)[nH]n3)C2)c1 [I-632]
13,4.00 to 5.00,C=CC(=O)NCCCCN1CCN(c2ccnc(N[C@@H]3CCCN(c4cccc(F)c4)C3)c2)CC1 [I-633]
14,4.00 to 5.00,C=CC(=O)NCC1CCCN(c2ccnc(N[C@@H]3CCCN(c4cccc(F)c4)C3)c2)C1 (stereo partly drawn) [I-634]
15,4.00 to 5.00,Fc1cccc(N2CCC[C@@H]3[C@H]2CCN3c2cc(N3CCCCCC3)ccn2)c1 [I-635]
16,> 5.00,Cc1cccc(F)c1-c1c(C(=O)N[C@@H](CC(N)=O)c2cccc(Cl)c2)c[nH]c1C#N [I-637]
17,< 3.70,CCc1cccc([C@H](CC(N)=O)NC(=O)c2cn[nH]c2-c2ccccc2F)c1 [I-638]
18,4.00 to 5.00,Fc1cccc(N2CCC[C@@H](Nc3cc(N4CCC5CCC4C5)ccn3)C2)c1 (stereo partly drawn) [I-640]
19,4.00 to 5.00,C=CC(=O)N1CCC2(CC1)CCN(c1ccnc(N[C@@H]3CCCN(c4cccc(F)c4)C3)c1)CC2 [I-642]
20,> 5.00,C[C@H]1CCCCN1c1ccnc(N2CC[C@@H]3[C@H]2CCCN3c2cccc(F)c2)c1 [I-643]
21,4.00 to 5.00,C[C@H]1CCCCN1c1ccnc(N2CC[C@H]3[C@@H]2CCCN3c2cccc(F)c2)c1 [I-644]

# Same assay, conditions: DCAF1-3 SPR (KD), 25 °C
row,SMILES,pKd
1,"Fc1cccc(N2CCC[C@@H]3[C@H]2CCN3c2cc(N3CCCCC3)ccn2)c1 [I-579, (3aR,7aR)-4-(3-fluorophenyl)-1-(4-(piperidin-1-yl)pyridin-2-yl)octahydro-1H-pyrrolo[3,2-b]pyridine]",> 5.00
